The values that follow come from patent publication US7897645B2, “Herpesvirus-derived therapeutic agent for pain” (Taiho Pharmaceutical Co., Ltd., priority 2005, dated 2011).

The test system of test [1] is post herpetic neuralgia. As to the kind of experiment: Visual Analogue Scale (VAS) evaluation of pain in herpes zoster / post herpetic neuralgia patients (case reports). The format is in vivo, human. To be noted: for VAS evaluation of pain: mecobalamin 1500 μg/day and sodium loxoprofen 180 mg/day oral together, after 2 weeks. How it is done:
The present invention will be described below in more detail with reference to examples and test examples. However, the invention is not limited by these examples. The sharp pain in examples was evaluated by the Visual Analogue Scale evaluation (hereinafter abbreviated to “VAS evaluation”), in which the grade of pain of each patient is expressed by himself or herself on a 100 mm straight line. In VAS evaluation, the highest score is 10 points (100 mm), and the point becomes smaller according to the decrease of the pain. (refer to Anesth Analog 1993, 77, 1041-1047 etc.)

The subject of test [2] is post herpetic neuralgia. Nature of the test: Clinical course of zoster-associated pain in patients, in words (case reports). The format is in vivo, human. Conditions: for effect on continued pain after herpes zoster: Example 6: person, diclofenac sodium suppository 1 to 2 times per day in addition to morphine hydrochloride 30 mg/day. How it is done:
A person. They were diagnosed as right face herpes zoster. Anti-virus agent was administered by drops for 5 days. Since dull pain remained at the same region thereafter, oral administration of mecobalamin of 1500 μg/day and sodium loxoprofen of 180 mg/day was started after the consultation. After administration for 2 weeks, VAS evaluation of pain dropped to 1 point, and the administration of sodium loxoprofen stopped with administration of mecobalamin maintained. Mecobalamin was further administered, and although VAS evaluations were 1 to 3 points for about 3 months, sense of incongruity and spasmodic sharp pain of neuralgia after herpes zoster continued, and therefore oral administration of a 100 mg capsule of IPD 3 times per day was started in the same manner as in Example 1 with administration of mecobalamin maintained. After 1 week of the administration of suplatast tosylate, the post herpetic neuralgia disappeared, and VAS evaluation became 0 point. […] Then administration was stopped.
A person. Painful rashes appeared from right chest to the back, and they were diagnosed as herpes zoster. Anti-virus agent was administered by dropping for 1 week, but the pain continued. Diclofenac sodium suppository was used by 1 to 2 times per day in addition to administration of morphine hydrochloride 30 mg/day, but both of them were no effect, and further nerve block treatment was also no effect. After 6 months of the consultation (7 points at VAS evaluation), oral administration of a 100 mg capsule of IPD 3 times per day was started in the same manner as in Example 1, the post herpetic neuralgia decreased to 5 points at VAS evaluation by the treatment for 3 weeks, although the administration of morphine was invalid.

Consider `CCOCC(O)COc1ccc(NC(=O)CC[S+](C)C)cc1.Cc1ccc(S(=O)(=O)[O-])cc1` (racemic) [suplatast tosylate, (±)-[2-[4-(3-ethoxy-2-hydroxypropoxy)phenylcarbamoyl]ethyl]dimethylsulfonium p-toluenesulfonate], for which the VAS evaluation was 0 point with post herpetic neuralgia [1] (Example 1: person, PHN, 100 mg capsule of IPD 3 times per day oral, after 3 days, 5 points before); 2 points in the test with post herpetic neuralgia [1] (Example 2: person, PHN, 100 mg capsule of IPD 3 times per day oral, after 1.5 months, 7 points before); 0 point in the test on post herpetic neuralgia [1] (Example 3: person, PHN, 100 mg capsule of IPD 3 times per day oral, mecobalamin maintained, after 1 week, 1 to 3 points before); 0.1 to 0.2 point with post herpetic neuralgia [1] (Example 4: person, PHN, 100 mg capsule of IPD 3 times per day oral, after 1 month, 0.5 to 1 point before); 0.7 point in the test with post herpetic neuralgia [1] (Example 5: person, PHN, 100 mg capsule of IPD 3 times per day oral, by continuation of the administration); 1 point with post herpetic neuralgia [1] (Example 5: person, PHN, 100 mg capsule of IPD 3 times per day oral, first decrease, 5 points before). In the test with post herpetic neuralgia [1] (Example 6: person, PHN, 100 mg capsule of IPD 3 times per day oral, treatment for 3 weeks, 7 points before), the VAS evaluation is 5 points. Moreover, in the test with post herpetic neuralgia [2] (Example 3: person, oral suplatast tosylate and mecobalamin continued for further about 1 month), the “symptoms on continued administration” value is on record as “no symptom was observed”.

Regarding `O=C(O)Cc1ccccc1Nc1c(Cl)cccc1Cl` [Diclofenac sodium], in the test with post herpetic neuralgia [2], the “effect on continued pain after herpes zoster” value is on record as “no effect”.

Consider `C/C1=C2/[N-][C@H]([C@H](CC(N)=O)[C@@]2(C)CCC(=O)NC[C@@H](C)OP(=O)([O-])O[C@H]2[C@@H](O)[C@@H](n3cnc4cc(C)c(C)cc43)O[C@@H]2CO)[C@]2(C)N=C(/C(C)=C3N=C(/C=C4N=C1[C@@H](CCC(N)=O)C\4(C)C)[C@@H](CCC(N)=O)[C@]\3(C)CC(N)=O)[C@@H](CCC(N)=O)[C@]2(C)CC(N)=O.[CH3-].[Co+3]` [mecobalamin], for which the VAS evaluation with post herpetic neuralgia [1] (Example 1: person, mecobalamin 1500 μg/day oral continued, neuralgia not changed for 3 years after consultation) is 5 points; with post herpetic neuralgia [1] (Example 2: person, mecobalamin 1500 μg/day continued, PHN did not change for 8 months after consultation) it was 7 points; in the test with post herpetic neuralgia [1] (Example 4: person, mecobalamin 1500 μg/day for 1.5 months, 5 points before), 0.5 to 1 point. Further, the “VAS evaluation of pain” value with post herpetic neuralgia [1] (Example 3: person) amounted to 1 point. The molecule further yielded a VAS evaluations in the test on post herpetic neuralgia [1] (Example 3: person, mecobalamin alone further administered, for about 3 months) of 1 to 3 points.

As to `CN1CC[C@]23c4c5ccc(O)c4O[C@H]2[C@@H](O)C=C[C@H]3[C@H]1C5.Cl` [morphine hydrochloride], in the test on post herpetic neuralgia [2], the “effect on continued pain after herpes zoster” value is listed as “no effect”.

In the case of `CC(C(=O)[O-])c1ccc(CC2CCCC2=O)cc1.[Na+]` (stereo not shown) [sodium loxoprofen], the “VAS evaluation of pain” value in the test with post herpetic neuralgia [1] (Example 3: person) amounted to 1 point.
